Consider 17 compounds from patent US10052359B2, “Composition for enhancing memory and learning function and/or cognitive function” (KIRIN KABUSHIKI KAISHA, priority 2014, dated 2018).

Entries after “also recorded” stand apart in the source; their conditions may differ.

One experiment deals with scopolamine model of poor memory. Nature of the experiment: Y-maze test (spontaneous alternation behavior) in mice given scopolamine. Type of experiment: in vivo. The following applies: 1 μmol/kg to mice; FIG. 9A, 9B. The protocol:
FIG. 1A illustrates a summary of methods of evaluating the memory and learning function and the cognitive function. To 6-week-old male CD-1 mice, 1 mg/kg of the peptide extract or 0.1-3 μmol/kg of a synthetic peptide is orally administered forcibly into stomach and 40 minutes later 0.80 mg/kg of scopolamine hydrochloride was administered intraperitoneally to cause memory impairment. 20 minutes after the intraperitoneal administration of scopolamine, the Y-maze test was conducted to evaluate the spontaneous alternation behavior.
Mice originally have a habit of selecting a route different from the route selected immediately before. Therefore a mouse placed in a Y-maze having 3 arms equivalent in width, length, and the like normally enters the arm different from the arm that the mouse entered immediately before. The Y-maze test is a test to evaluate the short-term memory using the habit of mice.
In the Y-maze test, a Y-maze was used as an experimental apparatus having 3 arms each connected at an angle of 120 degrees and each having a length of 25 cm, a wall high of 20 cm, and a floor width of 5 cm.
Mice were placed in the tip of one of the aims in the Y-maze and the orders of the arms that the mice entered when the mice were allowed to search freely for 8 minutes were recorded. The spontaneous alternation behavior is defined as the behavior in which a mouse selects and enters the different arm three times consecutively. […] 10 mice per group were used for the experiment and the average and the standard error were determined. [Examination of Enzymatic Agent]
With PVEP (listed as Bos taurus), the “enhancing effect on the memory and learning function” value was “had the enhancing effect on the memory and learning function at the similar level to that of the original amino acid sequence KEMPFPKYPVEP”.

Still in this experiment, the particulars now being: synthetic peptide 0.1-3 μmol/kg orally; scopolamine 0.80 mg/kg i.p.
For the compound `N[C@@H](Cc1c[nH]c2ccccc12)C(=O)O` [W, tryptophan, reference compound], the “enhancing effect on the memory and learning function and the cognitive function (spontaneous alternation behavior rate)” value was “had no effects”.

As to “AVPYP (listed as Bos taurus) [casein-derived peptide, tested as synthetic peptide]”, the “enhancing effect on the memory and learning function and the cognitive function (spontaneous alternation behavior rate)” value is “enhancement activity on the memory and learning function and the cognitive function”.

Turning to “GTWY (listed as Bos taurus) [whey-derived peptide, tested as synthetic peptide]”, the “enhancing effect on the memory and learning function and the cognitive function (spontaneous alternation behavior rate)” value was “exhibited the activity of enhancing the memory and learning function and the cognitive function in a concentration-dependent manner”.

Regarding “GYGGVSLP (listed as Bos taurus) [whey-derived peptide, tested as synthetic peptide]”, the “enhancing effect on the memory and learning function and the cognitive function (spontaneous alternation behavior rate)” value was “exhibited the activity of enhancing the memory and learning function and the cognitive function in a concentration-dependent manner”.

For the compound “KEMPFPKYPVEP (listed as Bos taurus) [casein-derived peptide of 12 amino acids, tested as synthetic peptide]”, the “enhancing effect on the memory and learning function and the cognitive function (spontaneous alternation behavior rate)” value is “enhancement activity on the memory and learning function and the cognitive function”.

For “KPTPEGDLEI (listed as Bos taurus) [whey-derived peptide, tested as synthetic peptide]”, the “enhancing effect on the memory and learning function and the cognitive function (spontaneous alternation behavior rate)” value was “exhibited the activity of enhancing the memory and learning function and the cognitive function in a concentration-dependent manner”.

Consider “SLPQ (listed as Bos taurus) [casein-derived peptide, tested as synthetic peptide]”, for which the “enhancing effect on the memory and learning function and the cognitive function (spontaneous alternation behavior rate)” value is “enhancement activity on the memory and learning function and the cognitive function”.

With “TWY (listed as Bos taurus) [whey-derived peptide, tested as synthetic peptide]”, the “enhancing effect on the memory and learning function and the cognitive function (spontaneous alternation behavior rate)” value was “exhibited the activity of enhancing the memory and learning function and the cognitive function in a concentration-dependent manner”.

Take “TWYS (listed as Bos taurus) [whey-derived peptide, tested as synthetic peptide]”: the “enhancing effect on the memory and learning function and the cognitive function (spontaneous alternation behavior rate)” value is “exhibited the activity of enhancing the memory and learning function and the cognitive function in a concentration-dependent manner”.

With “VAGTWYS (listed as Bos taurus) [whey-derived peptide, tested as synthetic peptide]”, the “enhancing effect on the memory and learning function and the cognitive function (spontaneous alternation behavior rate)” value is “exhibited the activity of enhancing the memory and learning function and the cognitive function in a concentration-dependent manner”.

As to “VSLPEW (listed as Bos taurus) [whey-derived peptide, tested as synthetic peptide]”, the “enhancing effect on the memory and learning function and the cognitive function (spontaneous alternation behavior rate)” value was “exhibited the activity of enhancing the memory and learning function and the cognitive function in a concentration-dependent manner”.

For “YPE (listed as Bos taurus) [casein-derived peptide, tested as synthetic peptide]”, the “enhancing effect on the memory and learning function and the cognitive function (spontaneous alternation behavior rate)” value is “enhancement activity on the memory and learning function and the cognitive function”.

For the compound “methionine-tryptophan [MW, reference compound]”, the “enhancing effect on the memory and learning function and the cognitive function (spontaneous alternation behavior rate)” value was “had no enhancing effect on the memory and learning function and the cognitive function”.

tryptophan-methionine [WM]: the “enhancing effect on the memory and learning function and the cognitive function (spontaneous alternation behavior rate)” value was “found to have an enhancing effect on the memory and learning function and the cognition function in a concentration-dependent manner; also recorded: enhancement activity on the memory and learning function and the cognitive function”.

tryptophan-tyrosine [WY]: the “enhancing effect on the memory and learning function and the cognitive function (spontaneous alternation behavior rate)” value was “found to have an enhancing effect on the memory and learning function and the cognition function in a concentration-dependent manner; also recorded: enhancement activity on the memory and learning function and the cognitive function”.

“tyrosine-tryptophan [YW, reference compound]”: the “enhancing effect on the memory and learning function and the cognitive function (spontaneous alternation behavior rate)” value is “had no enhancing effect on the memory and learning function and the cognitive function”.

Another experiment concerns TNF-α. Nature of the experiment: Anti-inflammatory activity of isolated microglia (TNF-α in supernatant by ELISA after LPS and IFNγ). To be noted: 12 h pretreatment with 0, 25, 50 or 100 μM synthetic peptide; then LPS 5 ng/ml and IFNγ 0.5 ng/ml for 12 h; FIG. 11. It is filed as cell-based, mouse. The protocol: Brain tissue homogenate is obtained by treating the brain extirpated from a mouse with papain. After stopping the enzymatic reaction, microglia were allowed to interact with a pan-microglia marker, CD11b antibody (produced from Miltenyi Biotec) magnetically-labeled with microbeads and isolated by the MACS method.
Isolated microglia are cultured for 12 hours in a medium supplemented with various peptides. 5 ng/ml lipopolysaccharide (LPS, SIGMA-ALDRICH) and 0.5 ng/ml interferon γ(IFNγ, R & D systems) were then added and culture was continued for 12 hours. TNF-α contained in the culture supernatant was quantified with an ELISA kit (eBiosceince).
Peptides were synthesized based on the obtained amino acid sequences and the anti-inflammatory effect was evaluated. The isolated microglia are pretreated in a medium supplemented with 0, 25, 50, or 100 μM of a synthetic peptide ([…] (SEQ ID NO: 1), […] (SEQ ID NO: 17), AVPYP (SEQ ID NO: 6), SLPQ (SEQ ID NO: 9), YPE (SEQ ID NO: 12), WM (SEQ ID NO: 14), or WY (SEQ In NO: 13)) for 12 hours. As described above, LPS and IFN-γ were added to the medium and culture was continued for 12 hours. INF-α contained in the culture supernatant was measured by ELISA. The result is illustrated in FIG. 11. In FIG. 11, “CM1” indicates the result of […] (SEQ ID NO: 1), “CM2” indicates the result of […] […]
In general terms: ELISA stands for enzyme-linked immunosorbent assay.
In the case of tryptophan-tyrosine [WY], the “production of TNF-α (anti-inflammatory effect)” value was “particularly high anti-inflammatory effect”.
